ChEMBL document CHEMBL4184137, “Lysine Deacetylase Inhibitors in Parasites: Past, Present, and Future Perspectives” (J Med Chem, 2017)
Each block holds one compound with its values, some of them ahead of it. *1 amine or outer side, *2 acyl side, *3 side chain or, on linkers, in order; H or OH if unused. Where a SMILES comes first, the peptide text is derived from it. Bridges are numbered along the chain shown (N, C = ends). [ ]: non-standard residue; d: D form. X1 = CC(C)CCCCCCCCC[C@H](CC(=O)[*:1])O[*:2]

How the values were obtained:
[1] = Inhibition of Plasmodium falciparum Sir2A
[2] = target: T1, NAD-dependent protein deacetylase sirtuin-1 (Homo sapiens, UniProt Q96EB6); test: Inhibition of human SIRT1
T1 sequence (Q96EB6 whole entry): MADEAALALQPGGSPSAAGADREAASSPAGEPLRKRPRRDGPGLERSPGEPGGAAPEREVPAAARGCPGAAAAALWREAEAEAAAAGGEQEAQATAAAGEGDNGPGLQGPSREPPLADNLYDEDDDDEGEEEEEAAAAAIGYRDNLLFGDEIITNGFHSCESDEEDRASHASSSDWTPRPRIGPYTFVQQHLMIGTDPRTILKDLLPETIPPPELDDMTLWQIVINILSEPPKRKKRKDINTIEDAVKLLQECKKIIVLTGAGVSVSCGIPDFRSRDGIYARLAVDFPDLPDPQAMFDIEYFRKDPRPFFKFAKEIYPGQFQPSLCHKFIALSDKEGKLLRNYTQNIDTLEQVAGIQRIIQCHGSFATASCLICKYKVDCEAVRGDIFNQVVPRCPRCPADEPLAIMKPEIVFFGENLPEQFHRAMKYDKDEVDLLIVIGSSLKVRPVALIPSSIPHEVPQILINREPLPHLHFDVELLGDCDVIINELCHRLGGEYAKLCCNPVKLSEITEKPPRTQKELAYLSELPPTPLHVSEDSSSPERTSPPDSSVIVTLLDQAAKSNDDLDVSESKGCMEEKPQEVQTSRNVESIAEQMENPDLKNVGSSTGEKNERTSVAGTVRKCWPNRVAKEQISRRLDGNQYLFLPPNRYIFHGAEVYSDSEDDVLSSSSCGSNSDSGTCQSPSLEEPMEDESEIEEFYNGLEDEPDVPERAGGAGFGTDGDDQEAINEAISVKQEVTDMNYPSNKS

Plasmodium falciparum = test: Antiplasmodial activity against Plasmodium falciparum 3D7 assessed as growth inhibition after 24 hrs by measuring incorporation of [3H]-hypoxanthine by liquid scintillation counting method; format: functional, organism-based
Schistosoma mansoni [3] = test: Antiparasitic activity against Schistosoma mansoni assessed as cumulative egg reduction at 20 uM; format: functional; design: scale not given: the % may be the effect or the level left
Schistosoma mansoni [4] = test: Antiparasitic activity against Schistosoma mansoni assessed cell viability at 20 uM after 5 days; format: functional
Leishmania infantum [5] = test: Antiproliferative activity against amastigote stage of Leishmania infantum measured for 1 min and 45 secs by propidium iodide staining-based flow cytometry; format: functional, organism-based
Leishmania infantum [6] = test: Antiproliferative activity against promastigote stage of Leishmania infantum measured for 1 min and 45 secs by propidium iodide staining-based flow cytometry; format: functional, organism-based
Leishmania infantum [7] = test: Antileishmanial activity against amastigote stage of Leishmania infantum MHOM/MA671TMAP263 expressing luciferase after 72 hrs by luciferase assay; format: functional, organism-based; conditions: MHOM/MA671TMAP263, 72 h
Schistosoma mansoni [8] = test: Antiparasitic activity against Schistosoma mansoni assessed as pairing at 20 uM after 6 days relative to control; format: functional
Schistosoma mansoni [9] = test: Antiparasitic activity against Schistosoma mansoni assessed cell viability at 20 uM after 4 days; format: functional
Trypanosoma cruzi = test: Antitrypanosomal activity against epimastigotes of Trypanosoma cruzi […] by Alamar Blue assay; format: functional, organism-based
[10] = Inhibition of recombinant Trypanosoma cruzi Sir2rp3
Schistosoma mansoni [11] = test: Antiparasitic activity against Schistosoma mansoni assessed as pairing at 20 uM after 5 days relative to control; format: functional
Toxoplasma gondii = test: Antiparasitic activity against Toxoplasma gondii; format: functional, organism-based

IC50 [1]: 35 µM | IC50 [2]: > 600 µM
Compound: CC(C)CCCCCCCCC[C@@H]1CC(=O)N[C@@H](CCC(=O)O)C(=O)N[C@@H](CC(C)C)C(=O)N[C@H](CC(C)C)C(=O)N[C@@H](C(C)C)C(=O)N[C@@H](CC(=O)O)C(=O)N[C@H](CC(C)C)C(=O)N[C@@H](CC(C)C)C(=O)O1 [SURFACTIN] (EL[dL]VD[dL]L; linker N-C via X1)
IC50 (Plasmodium falciparum): 9 µM

IC50 [1]: > 50 µM | IC50 (Leishmania infantum [7]): 30 µM
Compound: CC(NC(=O)c1ccccc1/N=C/c1c(O)ccc2ccccc12)c1ccccc1 (configuration not stated) [SIRTINOL]
IC50 (Plasmodium falciparum): 9 to 13 µM | Activity (Schistosoma mansoni [3]): 42% | Activity (Schistosoma mansoni [4]): 100% | IC50 (Leishmania infantum [5]): 30 µM | IC50 (Leishmania infantum [6]): > 60 µM | Activity (Schistosoma mansoni [8]): 75%

EC50 (Trypanosoma cruzi): 10.6 µM
Compound: CC(C(=O)Nc1cccc(/N=C/c2c(O)ccc3ccccc23)c1)c1ccccc1 (configuration not stated) [SALERMIDE]
Activity (Schistosoma mansoni [9]): 100% | Activity (Schistosoma mansoni [3]): 95% | IC50 [10]: 1 µM | Activity (Schistosoma mansoni [11]): 100%

Compound: CCC(=O)CCCCC[C@@H]1NC(=O)[C@H]2CCCCN2C(=O)[C@H]([C@@H](C)CC)NC(=O)[C@H](Cc2cn(OC)c3ccccc23)NC1=O [APICIDIN]
IC50 (Toxoplasma gondii): 0.013 to 0.015 µM
